According to US20080045514A1 (Cytovia, Inc., priority 2006, published 2008):
Read-outs that look alike come from different tables or passages of the source.

Experiments:
Format in all cases: cell-based
[1] = system: human hepatocellular carcinoma cell line SNU398; experiment: Caspase cascade activation (EC50), SNU398; conditions: Homo sapiens, SNU-398, SNU398 cells
Protocol: (§1) Human breast cancer cell lines T-47D, human hepatocellular carcinoma cell line SNU398, human colon carcinoma cell line HCT116, human cancer cell line H1299, human Burkitt's lymphoma cell line Namalwa, human lymphoma cell line Raji, and human B cell lymphoblastoid cell line Ramos were grown according to media component mixtures designated by American Type Culture Collection+10% FCS (Invitrogen Corporation), in a 5% CO2-95% humidity incubator at 37° C. T-47D and H1299 cells were maintained at a cell density between 50 and 80% confluency at a cell density of 0.1 to 0.6×10^6 cells/mL. Cells were harvested at 600×g and resuspended at 0.65×10^6 cells/mL into appropriate media+10% FCS. An aliquot of 22.5 μL of cells was added to a well of a 384-well microtiter plate containing 2.5 μL of a 10% DMSO in RPMI-1640 media solution containing 0.16 to 100 μM of 3-(2-chlorophenyl)-6-(3,4-methylenedioxyphenyl)-7H-[1,2,4]triazolo[3,4-b][1,3,4]thiadiazine or other test compound (0.016 to 10 μM final). An aliquot of 22.5 μL of cells was added to a well of a 384-well microtiter plate containing 2.5 μL of a 10% DMSO in RPMI-1640 media solution without test compound as the control sample. The samples were mixed by agitation and then incubated at 37° C. for 48 h in a 5% CO2-95% humidity incubator. After incubation, the samples were removed from the incubator and 25 μL of a solution containing 14 μM of N—(Ac-DEVD)-N′-ethoxycarbonyl-R110 (SEQ ID No.:1) fluorogenic substrate (Cytovia, Inc.; WO99/18856), 20% sucrose (Sigma), 20 mM DTT (Sigma), 200 mM NaCl (Sigma), 40 mM Na PIPES buffer pH 7.2 (Sigma), and 500 μg/mL lysolecithin (Calbiochem) was added. The samples were mixed by agitation and incubated at room temperature. Using a fluorescent plate reader (Model SPECTRAfluor Plus, Tecan), an initial reading (T=0) was made approximately 1-2 min after addition of the substrate solution, employing excitation at 485 nm and emission at 530 nm, to determine the background fluorescence of the control sample. After the 3 h incubation, the samples were read for fluorescence as above (T=3 h). Calculation: The Relative Fluorescence Unit values (RFU) were used to calculate the sample readings as follows: RFU(T=3H)−Control RFU(T=0)=Net RFU(T=3h) The activity of caspase cascade activation was determined by the ratio of the net RFU value for 3-(2-chlorophenyl)-6-(3,4-methylenedioxyphenyl)-7H-[1,2,4]triazolo[3,4-b][1,3,4]thiadiazine (Example P) or other test compound to that of control samples. The EC50 (nM) was determined by a sigmoidal dose-response calculation (Prism 3.0, GraphPad Software Inc.).

[2] = system: human Burkitt's lymphoma cell line Namalwa; experiment: Caspase cascade activation (EC50), Namalwa; conditions: Homo sapiens, Burkitts lymphoma cell, Namalwa cells
Protocol: as §1

[3] = system: human breast cancer cell line T-47D; experiment: Caspase cascade activation (EC50), T-47D; conditions: Homo sapiens, T47D cells
Protocol: as §1

[4] = system: human colon carcinoma cell line HCT116; experiment: Caspase cascade activation (EC50), HCT116; conditions: Homo sapiens, HCT-116, HCT116 cells
Protocol: as §1

[5] = caspase cascade activation, read-out: caspase potency (EC50) SNU398
[6] = caspase cascade activation, read-out: caspase potency (EC50) Namalwa
[7] = caspase cascade activation, read-out: caspase potency (EC50) T47D
[8] = caspase cascade activation, read-out: caspase potency (EC50) HCT116
[9] = read-out: Caspase potency (EC50) SNU398
[10] = read-out: Caspase potency (EC50) Namalwa
[11] = read-out: Caspase potency (EC50) T47D
[12] = read-out: Caspase potency (EC50) HCT116

EC50 [1, 5] [nM]	EC50 [2, 6] [nM]	EC50 [3, 7] [nM]	EC50 [4, 8] [nM]	EC50 [1, 9] [nM]	EC50 [2, 10] [nM]	EC50 [3, 11] [nM]	EC50 [4, 12] [nM]	SMILES
> 10000	> 10000	> 10000	> 10000					COc1ccc(-c2nnc3n2N=C(c2ccc4[nH]c(=O)oc4c2)CS3)cc1OC [Example 35, 6-(2,3-Dihydro-2-oxobenzo[d]oxazol-6-yl)-3-(3,4-dimethoxyphenyl)-7H-[1,2,4]triazolo[3,4-b][1,3,4]thiadiazine]
> 10000	292	> 10000	> 10000					COc1ccccc1-c1nnc2n1N=C(c1ccc(Cl)c(Cl)c1)CS2 [Example Q3]
				1260	1180	5420	1780	Cc1ccc(C2=Nn3c(nnc3-c3cc(N)cn3C)SC2)cc1 [Example 99, 3-(1-Methyl-4-amino-1H-pyrrol-2-yl)-6-(4-methylphenyl)-7H-[1,2,4]triazolo[3,4-b][1,3,4]thiadiazine]
				59	66	166	98	Cc1ccc(C2=Nn3c(nnc3-c3c(C)nc4ccccn34)SC2)cc1 [Example 98, 3-(2-Methyl-imidazo[1,2-a]pyridin-3-yl)-6-(4-methylphenyl)-7H-[1,2,4]triazolo[3,4-b][1,3,4]thiadiazine]
562	304	907	1250					COc1ccccc1-c1nnc2n1N=C(c1cc(I)c(N)c(I)c1)CS2 [Example 79, 6-(4-Amino-3,5-diiodophenyl)-3-(2-methoxyphenyl)-7H-[1,2,4]triazolo[3,4-b][1,3,4]thiadiazine]
1870	> 10000	2040	> 10000					COc1ccccc1-c1nnc2n1N=C(c1ccc(Cl)c([N+](=O)[O-])c1)CS2 [Example 55, 6-(4-Chloro-3-nitrophenyl)-3-(2-methoxyphenyl)-7H-[1,2,4]triazolo[3,4-b][1,3,4]thiadiazine]
> 10000	> 10000	> 10000	> 10000					Cc1ccc(C2=Nn3c(nnc3-c3snnc3C)SC2)cc1 [Example 93, 3-(4-Methyl-1,2,3-thiadiazol-5-yl)-6-(4-methylphenyl)-7H-[1,2,4]triazolo[3,4-b][1,3,4]thiadiazine]
380	320	525	1320					COc1ccccc1-c1nnc2n1N=C(c1ccn(C)c1)CS2 [Example 86, 3-(2-Methoxyphenyl)-6-(1-methyl-1H-pyrrol-3-yl)-7H-[1,2,4]triazolo[3,4-b][1,3,4]thiadiazine]
51	73	259	124					COc1ccccc1-c1nnc2n1N=C(c1cc(Br)c(N)c(Br)c1)CS2 [Example 78, 6-(4-Amino-3,5-dibromophenyl)-3-(2-methoxyphenyl)-7H-[1,2,4]triazolo[3,4-b][1,3,4]thiadiazine]
529	507	> 10000	557					Cc1ccc(C2=Nn3c(nnc3-c3ccccc3N)SC2)cc1 [Example 74, 3-(2-Aminophenyl)-6-(4-methylphenyl)-7H-[1,2,4]triazolo[3,4-b][1,3,4]thiadiazine]
> 10000	> 10000	> 10000	> 10000					Cc1ccccc1-c1nnc2n1N=C(c1ccc(C)c([N+](=O)[O-])c1)CS2 [Example 53, 6-(4-Methyl-3-nitrophenyl)-3-(2-methylphenyl)-7H-[1,2,4]triazolo[3,4-b][1,3,4]thiadiazine]
4920	4930	4600	5090					COc1cc(OC)cc(-c2nnc3n2N=C(c2ccc4[nH]c(=O)oc4c2)CS3)c1 [Example 34, 6-(2,3-Dihydro-2-oxobenzo[d]oxazol-6-yl)-3-(3,5-dimethoxyphenyl)-7H-[1,2,4]triazolo[3,4-b][1,3,4]thiadiazine]

The remaining lines, values behind:

SMILES	EC50 [1, 5] [nM]	EC50 [2, 6] [nM]	EC50 [3, 7] [nM]	EC50 [4, 8] [nM]	EC50 [1, 9] [nM]	EC50 [2, 10] [nM]	EC50 [3, 11] [nM]	EC50 [4, 12] [nM]
COc1ccccc1-c1nnc2n1N=C(c1ccc(C(=O)O)cc1)CS2 [Example 89, 6-(4-Carboxyphenyl)-3-(2-Methoxyphenyl)-7H-[1,2,4]triazolo[3,4-b][1,3,4]thiadiazine]	> 10000	> 10000	> 10000	> 10000				
Cc1ccc(C2=Nn3c(nnc3-c3cc([N+](=O)[O-])cn3C)SC2)cc1 [Example 95, 3-(1-Methyl-4-nitro-1H-pyrrol-2-yl)-6-(4-methylphenyl)-7H-[1,2,4]triazolo[3,4-b][1,3,4]thiadiazine]					478	328	2700	693
COc1ccccc1-c1nnc2n1N=C(c1cccc(C)c1)CS2 [Example 82, 3-(2-Methoxyphenyl)-6-(3-methylphenyl)-7H-[1,2,4]triazolo[3,4-b][1,3,4]thiadiazine]	500	497	605	370				
Cc1ccc(C2=Nn3c(nnc3-c3ccc(Cl)cc3C)SC2)cc1N [Example 91, 6-(3-Amino-4-methylphenyl)-3-(4-chloro-2-methylphenyl)-7H-[1,2,4]triazolo[3,4-b][1,3,4]thiadiazine]	28	16	63	30				
Cc1ccc(C2=Nn3c(nnc3-c3ccoc3C)SC2)cc1 [Example 83, 3-(2-Methylfuran-3-yl)-6-(4-methylphenyl)-7H-[1,2,4]triazolo[3,4-b][1,3,4]thiadiazine]	523	332	2540	683				
Cc1ccc(C2=Nn3c(nnc3-c3ccccc3S(C)(=O)=O)SC2)cc1 [Example 73, 3-(2-Methylsulfonylphenyl)-6-(4-methylphenyl)-7H-[1,2,4]triazolo[3,4-b][1,3,4]thiadiazine]	> 1000	> 10000	> 10000	> 10000				
COc1cc(C)c(Cl)cc1C1=Nn2c(nnc2-c2ccccc2OC)SC1 [Example 49, 6-(5-Chloro-2-methoxy-4-methylphenyl)-3-(2-methoxyphenyl)-7H-[1,2,4]triazolo[3,4-b][1,3,4]thiadiazine]	5650	5590	> 10000	> 10000				
Cc1ccc(C2=Nn3c(nnc3-c3ccccc3[S+](C)[O-])SC2)cc1 (stereo not drawn) [Example 72, 3-(2-Methylsulfinylphenyl)-6-(4-methylphenyl)-7H-[1,2,4]triazolo[3,4-b][1,3,4]thiadiazine]	> 10000	> 10000	> 10000	> 10000				
COc1ccccc1-c1nnc2n1N=C(c1ccc(C)cc1C)CS2 [Example 39, 3-(2-Methoxyphenyl)-6-(2,4-dimethylphenyl)-7H-[1,2,4]triazolo[3,4-b][1,3,4]thiadiazine]	943	1280	2700	2580				
COc1cc(-c2nnc3n2N=C(c2ccc(N(C)C)cc2)CS3)cc(OC)c1OC [Example 67, 6-(4-Dimethylaminophenyl)-3-(3,4,5-trimethoxyphenyl)-7H-[1,2,4]triazolo[3,4-b][1,3,4]thiadiazine]	43	61	175	58				
COc1ccc(C2=Nn3c(nnc3-c3cccc(Cl)c3Cl)SC2)cc1 [Example M3]	82	68	268	124				
COc1ccccc1-c1nnc2n1N=C(c1ccc(C(C)C)cc1)CS2 [Example 44, 6-(4-Isopropylphenyl)-3-(2-methoxyphenyl)-7H-[1,2,4]triazolo[3,4-b][1,3,4]thiadiazine]	243	248	281	275				
